Test [1] deals with rats with cerebral ischemic reperfusion injury. As to the kind of experiment: Cerebral ischemic reperfusion (MCAO, suture method) rat model. In kind it is in vivo. The note with it: for Relative cerebral infarction volume(%): 40 mg/kg i.v. 30 min before and 12 h after reperfusion, TTC.
In test [2] the test system is permanent cerebral ischemia model rats. Put plainly: Permanent cerebral ischemia (MCAO, suture method) rat model. The note with it: for Relative cerebral infarction volume(%): 40 mg/kg i.v. 30 min before insertion of thread and 12 h after embolism, TTC; for Fas average gray scale: gray scale inversely proportional to expression.
Where [3] appears, read: 40 mg/kg i.v., brain sections, TUNEL.

The record followed here is patent US20200179302A1, “USE OF DIPHENOL IN PREPARATION OF MEDICINES FOR PREVENTION AND TREATMENT OF CEREBRAL ISCHEMIA” (XI'AN LIBANG PHARMACEUTICAL CO., LTD, priority 2016, published 2020).

For `CC(=O)Oc1c(C(C)C)cc(-c2cc(C(C)C)c(OC(C)=O)c(C(C)C)c2)cc1C(C)C` [Example 3, 3,3′,5,5′-tetraisopropylbiphenyl-4′-diacetate], the “Relative cerebral infarction volume(%)” value is 23.22 ± 3.12 % in test [1] (24 h after reperfusion) and 27.92 ± 4.51 % in test [2] (24 h after embolism).

As to `CC1=NN(c2ccccc2)C(=O)C1` [Edaravone injection, edaravone], the “Relative cerebral infarct volume (%)” value in test [1] (edaravone 3 mg/kg, 24 h after reperfusion) is listed as 29.31 ± 3.95 %; in test [2] (edaravone 3 mg/kg, 24 h after embolism), 31.29 ± 4.02 %. Moreover, in test [2] (edaravone 3 mg/kg, brain sections), the “Fas average gray scale” value came out at 138.95 ± 5.50. The “TNF-α content” value in test [2] (edaravone 3 mg/kg, brain tissue homogenate) is 5.53 ± 0.54 ng/mL.

Take `CC(=O)Oc1c(C(C)C)cc(-c2cc(C(C)C)c(O)c(C(C)C)c2)cc1C(C)C` [Example 2, 4′-hydroxy-3,3′,5,5′-tetraisopropylbiphenyl-4-acetate]: the entries for the “Relative cerebral infarction volume(%)” value in test [1] (24 h after reperfusion) and in test [2] (24 h after embolism) were 18.71 ± 4.69 % and 24.71 ± 3.76 %, respectively. The “Number of apoptotic cells” value in test [1] (setting [3]) is 19.14 ± 4.24; in test [2] (setting [3]) it was 20.41 ± 5.02. Also, the “Fas average gray scale” value in test [1] (40 mg/kg i.v., brain sections, immunohistochemistry, gray scale inversely proportional to expression) was 162.47 ± 3.96; in test [2] (40 mg/kg i.v., brain sections, immunohistochemistry), 158.28 ± 6.66.
